Measurements: patent publication US6218393A, “Anthranilic acid derivatives as multi drug resistance modulators” (priority 1997, dated 2001)

Legend:
AR 1.0 cells [1] = assay: Potentiation index with doxorubicin titration; assay type: cell-based, mouse; conditions: for Potentiation Index at RMA concentration 30 nM: Table C2, RMA 30 nM; for Potentiation Index at RMA concentration 100 nM: Table C2, RMA 100 nM; for Potentiation Index at RMA concentration 300 nM: Table C2, RMA 300 nM; for Potentiation Index at RMA concentration 500 nM: Table C2, RMA 500 nM; for Potentiation Index at RMA concentration 10 nM: Table C2, RMA 10 nM
Procedure, shortened: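 MDR-resistant mouse EMT6 subline AR 1.0 grown four days with a doxorubicin titration (0.263 nM-17.24 μM) plus a fixed compound concentration; proliferation by sulphorhodamine B. Potentiation index derived from doxorubicin IC50 alone versus with compound.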

AR 1.0 cells [2] = assay: Drug accumulation assay: daunorubicin accumulation in AR 1.0 cells; assay type: cell-based; conditions: Mus musculus, 100% = accumulation with verapamil 100 μM, 1 hr, 37° C.
Procedure, shortened: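 AR 1.0 is the MDR-resistant subline of EMT6 mouse mammary carcinoma, grown in RPMI 1640 with 10% foetal calf serum and 2 mM glutamine at 37 °C, 5% CO2. Cells were seeded 48 h before the daunorubicin accumulation assay.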

AR 1.0 cells [3] = assay: Potentiation of doxorubicin toxicity: proliferation assay (sulphorhodamine B); assay type: cell-based, mouse
Text: (a) Selected compounds of formula (I) were examined for their ability to potentiate the toxicity of doxorubicin in AR 1.0 cells.

[4] = Mus musculus, 96 h, compound alone, four day proliferation, read-out: Compound Toxicity (IC50)
[5] = with fixed doxorubicin 0.34 μm, four days, 5760 min, read-out: Toxicity with Cytotoxic Agent (IC50)

SMILES	Potentiation Index at RMA concentration 30 nM (AR 1.0 cells [1])	Potentiation Index at RMA concentration 100 nM (AR 1.0 cells [1])	Potentiation Index at RMA concentration 300 nM (AR 1.0 cells [1])	Potentiation Index at RMA concentration 500 nM (AR 1.0 cells [1])	IC50 (AR 1.0 cells [2]) [nM]	IC50 (AR 1.0 cells [3]; [4]) [nM]	IC50 (AR 1.0 cells [3]; [5]) [nM]	Potentiation Index at RMA concentration 10 nM (AR 1.0 cells [1])
COc1cc2c(cc1OC)CN(CCc1ccc(NC(=O)c3ccccc3NC(=O)c3ccc(Cl)cc3)cc1)CC2 [compound 9496, 2-(4-chloro-benzoylamino)-N-{4-[2-(6,7-dimethoxy-3,4-dihydro-1H-isoquinolin-2-yl)-ethyl]-phenyl}-benzamide]	1.6	19	254	825	480	4000	30	
COc1cc2c(cc1OC)CN(CCc1ccc(NC(=O)c3ccccc3NC(=O)c3ccccc3C)cc1)CC2 [compound 9497, 2-(2-Methyl-benzoylamino)-N-{4-[2-(6,7-dimethoxy-3,4-dihydro-1H-isoquinolin-2-yl}-ethyl]-phenyl}-benzamide]			52	200	1600	9000	80	
COc1cc2c(cc1OC)CN(CCc1ccc(NC(=O)c3ccccc3NC(=O)c3cccc(F)c3)cc1)CC2 [compound 9500, 2-(3-Fluoro-benzoylamino)-N-{4-[2-(6,7-dimethoxy-3,4-dihydro-1H-isoquinolin-2-yl)-ethyl]-phenyl}-benzamide]	5.5	97	300		190	5000	9	
COc1cc2c(cc1OC)CN(CCc1ccc(NC(=O)c3ccccc3NC(=O)c3ccc(F)cc3)cc1)CC2 [compound 9501, 2-(4-Fluoro-benzoylamino)-N-{4-[2-(6,7-dimethoxy-3,4-dihydro-1H-isoquinolin-2-yl)-ethyl]-phenyl}-benzamide]	1.9	69	183		120	3000	40	
COc1cc2c(cc1OC)CN(CCc1ccc(NC(=O)c3ccccc3NC(=O)c3cccc(C)c3)cc1)CC2 [compound 9503, 2-(3-Methyl-benzoylamino)-N-{4-[2-(6,7-dimethoxy-3,4-dihydro-1H-isoquinolin-2-yl)-ethyl]-phenyl}-benzamide]			36	77	2000	3500	90	
COc1cc2c(cc1OC)CN(CCc1ccc(NC(=O)c3ccccc3NC(=O)c3ccc(C)cc3)cc1)CC2 [compound 9504, 2-(4-Methyl-benzoylamino)-N-{4-[2-(6,7-dimethoxy-3,4-dihydro-1H-isoquinolin-2-yl)-ethyl]-phenyl}-benzamide]		34	150	267	260	5000	60	
COc1cc2c(cc1OC)CN(CCc1ccc(NC(=O)c3ccccc3NC(=O)c3c(F)cccc3F)cc1)CC2 [compound 9514, 2-(2,6-Difluoro-benzoylamino)-N-{4-[2-(6,7-dimethoxy-3,4-dihydro-1H-isoquinolin-2-yl)-ethyl]-phenyl}-benzamide]			40	120	250	7000		
COc1cccc(C(=O)Nc2ccccc2C(=O)Nc2ccc(CCN3CCc4cc(OC)c(OC)cc4C3)cc2)c1 [compound 9517, 2-(3-Methoxy-benzoclamino)-N-{4-[2-(6,7-dimethoxy-3,4-dihydro-1H-isoquinolin-2-yl)-ethyl]-phenyl}-benzamide]			40	120	400	2000	50	
COc1ccc(C(=O)Nc2ccccc2C(=O)Nc2ccc(CCN3CCc4cc(OC)c(OC)cc4C3)cc2)cc1 [compound 9518, 2-(4-Methoxy-benzoylamino)-N-{4-[2-(6,7-dimethoxy-3,4-dihydro-1H-isoquinolin-2-yl)-ethyl]-phenyl}-benzamide]			120	240	300	1500	19	
COc1cc2c(cc1OC)CN(CCc1ccc(NC(=O)c3ccccc3NC(=O)c3cnc(C)cn3)cc1)CC2 [compound 9527, 5-Methyl-pyrazine-2-carboxylic acid (2-{4-[2-(6,7-dimethoxy-3,4-dihydro-1H-isoquinolin-2-yl)-ethyl]-phenylcarbamoyl}-phenyl)-amide]	11	50	103	120	52	4500	7	1.5
COc1cc2c(cc1OC)CN(CCc1ccc(NC(=O)c3ccccc3NC(=O)c3cnc4ccccc4n3)cc1)CC2 [compound 9531, Quinoxaline-2-carboxylic. acid (2-{4-[2-(6,7-dimethoxy-3,4-dihydro-1H-isoquinolin-2-yl)-ethyl]-phenylcarbamoyl}-phenyl)-amide]	120	150	160		35	1100	5	30
COc1cc2c(cc1OC)CN(CCc1ccc(NC(=O)c3ccccc3NC(=O)c3ccccc3O)cc1)CC2 [compound 9535]		32	128		450	2600	15	
COc1cc2c(cc1OC)CN(CCc1ccc(NC(=O)c3ccccc3NC(=O)c3ccc(Cl)c(Cl)c3)cc1)CC2 [compound 9536, 2-(3,4-Dichloro-benzoylamino)-N-{4-[2-(6,7-dimethoxy-3,4-dihydro-1H-isoquinolin-2-yl)-ethyl]-phenyl}-benzamide]		32	128		450	2650	15	
COc1cc2c(cc1OC)CN(CCc1ccc(NC(=O)c3ccccc3NC(=O)c3ccc(C)c(C)c3)cc1)CC2 [compound 9538, 2-(3,4-Dimethyl-benzoylamino)-N-{4-[2-(6,7-dimethoxy-3,4-dihydro-1H-isoquinolin-2-yl)-ethyl]-phenyl}-benzamide]		43	128		220	2300	14	
COc1cc2c(cc1OC)CN(CCc1ccc(NC(=O)c3ccccc3NC(=O)c3cc4ccccc4o3)cc1)CC2 [compound 9539, Benzofuran-2-carboxylic acid (2-{4-[2-(6,7-dimethoxy-3,4-dihydro-1H-isoquinolin-2-yl)-ethyl]-phenylcarbamoyl}-phenyl)-amide]		32	128		220	1700	11	
COc1cc2c(cc1OC)CN(CCc1ccc(NC(=O)c3ccc([N+](=O)[O-])cc3NC(=O)c3cnc4ccccc4n3)cc1)CC2 [compound 9541, Quinoxaline-2-carboxylic acid (2-{4-(2-(6,7-dimethoxy-3,4-dihydro-1H-isoquinolin-2-yl)-ethyl]-phenylcarbamoyl}-5-nitro-phenyl)-amide]	150	160	160		20	860	6	75
COc1cc2c(cc1OC)CN(CCc1ccc(NC(=O)c3ccc(NO)cc3NC(=O)c3cnc4ccccc4n3)cc1)CC2 [compound 9542, Quinoxaline-2-carboxylic acid (2-{4-[2-(6,7-dimethoxy-3,4-dihydro-1H-isoquinolin-2-yl)-ethyl]-phenylcarbamoyl}-5-hydroxyamino-phenyl)-amide]		128	160		130	1900	14	
COc1cc2c(cc1OC)CN(CCc1ccc(NC(=O)c3cc(C)ccc3NC(=O)c3cnc4ccccc4n3)cc1)CC2 [compound 9543, Quinoxaline-2-carboxylic acid (2-{4-[2-(6,7-dimethoxy-3,4-dihydro-1H-isoquinolin-2-yl)-ethyl]-phenylcarbamoyl}-4-methyl-phenyl)-amide]	120	150	150		70	900	8	24
COc1cc2c(cc1OC)CN(CCc1ccc(NC(=O)c3ccccc3NC(=O)c3cnc4ccccc4c3)cc1)CC2 [compound 9544, Quinoline-3-carboxylic acid (2-{4-[2-(6,7-dimethoxy-3,4-dihydro-1H-isoquinolin-2-yl)ethyl]-phenylcarbamoyl}-phenyl)-amide]	67	120	150		50	1900	7.7	15
